Key:
Experiment in all cases: MIC assay, microtitre broth dilution
Type in all cases: cell-based
S. aureus ATCC25923 C622 = S. aureus ATCC25923 C622 wt, Gram +; Mueller Hinton broth, 37° C., 24 h
Description: (§1) MIC assays were conducted essentially as described by Amsterdam, D. 1996, “Susceptibility testing of antimicrobials in liquid media,” p. 52-111. In Loman, V., ed. Antibiotics in Laboratory Medicine, 4th ed. Williams and Wilkins, Baltimore, Md. Briefly, a variety of compounds were tested for antibacterial activity against isolates of P. aeruginosa, K. pneumoniae , E. coli, S. epidermidus, and S. aureus in the MIC (minimum inhibitory concentration) assay under aerobic conditions using 96 well polystyrene microtitre plates (Falcon 1177), and Mueller Hinton broth at 37° C. incubated for 24 h. (MHB was used for most testing except C721 (S. pyogenes), which used Todd Hewitt broth, and Haemophilus influenzae, which used Haemophilus test medium (HTM)). Tests were conducted in triplicate.

S. epidermidis C621 = S. epidermidis C621 wt, Gram +; Mueller Hinton broth, 37° C., 24 h
Description: as §1

S. pyogenes C721 = S. pyogenes C721 wt, Gram +; Todd Hewitt broth, 37° C., 24 h
Description: as §1

[1] = tested on: P. aeruginosa PAE/K799 H187; conditions: P. aeruginosa PAE/K799 H187 wt, Gram −; Mueller Hinton broth, 37° C., 24 h
Description: as §1

E. Coli UB1005 C498 = E. Coli UB1005 C498 wt, Gram −; Mueller Hinton broth, 37° C., 24 h
Description: as §1

[2] = tested on: K. pneumoniae ATCC13883 C238; conditions: K. pneumoniae ATCC13883 C238 wt, Gram −; Mueller Hinton broth, 37° C., 24 h
Description: as §1

Compound | Minimum inhibitory concentration (S. aureus ATCC25923 C622) | Minimum inhibitory concentration (S. epidermidis C621) | Minimum inhibitory concentration (S. pyogenes C721) | Minimum inhibitory concentration [1] | Minimum inhibitory concentration (E. Coli UB1005 C498) | Minimum inhibitory concentration [2]
Sc1ncc2[nH]cnc2n1 [2-mercaptopurine] | N | N | N | N | N | N
O=c1[nH]cc(F)c(=O)[nH]1 [5-fluorouracil] | 10^−7 molar | 10^−7 molar | 10^−4 molar | 10^−5 molar | 10^−6 molar | 10^−6 molar
Sc1ncnc2nc[nH]c12 [6-mercaptopurine] | N | N | N | N | N | N
Nc1ccn([C@@H]2O[C@H](CO)[C@@H](O)[C@@H]2O)c(=O)n1 [Cytarabine] | N | N | N | N | N | N
CC[C@@]1(O)C(=O)OCc2c1cc1n(c2=O)Cc2cc3ccccc3nc2-1 [camptothecin] | N | 10^−4 molar | N | N | N | N
COc1cccc2c1C(=O)c1c(O)c3c(c(O)c1C2=O)C[C@@](O)(C(=O)CO)C[C@@H]3O[C@H]1C[C@H](N)[C@H](O)[C@H](C)O1 [doxorubicin] | 10^−5 molar | 10^−6 molar | 10^−7 molar | 10^−5 molar | 10^−4 molar | 10^−6 molar
COc1cc([C@@H]2c3cc4c(cc3[C@@H](O[C@@H]3O[C@@H]5CO[C@@H](C)O[C@H]5[C@H](O)[C@H]3O)[C@H]3COC(=O)[C@H]23)OCO4)cc(OC)c1O [etoposide] | 10^−5 molar | 10^−6 molar | 10^−5 molar | N | N | 10^−5 molar
NC(=O)NO [hydroxyurea] | N | N | 10^−4 molar | 10^−4 molar | N | N
CN(Cc1cnc2nc(N)nc(N)c2n1)c1ccc(C(=O)N[C@@H](CCC(=O)O)C(=O)O)cc1 [methotrexate] | 10^−5 molar | N | 10^−6 molar | N | N | 10^−6 molar
O=C1c2c(O)ccc(O)c2C(=O)c2c(NCCNCCO)ccc(NCCNCCO)c21 [mitoxantrone] | 10^−5 molar | 10^−5 molar | 10^−6 molar | 10^−5 molar | 10^−5 molar | 10^−6 molar
Nc1ncnc2c1ccn2[C@@H]1O[C@H](CO)[C@@H](O)[C@H]1O [tubercidin] | N | N | N | N | N | N
cisplatin | N | N | N | 10^−4 molar | N | N

Reference: US20110264139A1, “SUTURES AND FIBROSING AGENTS” (Angiotech Pharmaceuticals, Inc., priority 2006, published 2011)
